The numbers were not newly measured in patent US7833962B2, “Method of reducing hypertension by administering flavanol gylcosides” (Conopco, Inc., priority 2003, dated 2010), which cites them from elsewhere.

Entries after “also recorded” stand apart in the source; their conditions may differ.

Data set [1] has as its system Spontaneously Hypertensive Rats (SHR). As to conditions: chronic treatment, Duarte et al. 2001.
For data set [2] the following is noted: compared with quercetin glucosides such as isoquercitrin.

For the compound `O=c1c(O)c(-c2ccc(O)c(O)c2)oc2cc(O)cc(O)c12` [quercetin aglycone, quercetin], in data set [1], the blood pressure entry is given as “reduced blood pressure”; the glutathione peroxidase activity result is reported as “increased glutathione peroxidase activity”; the “plasma and hepatic malondialdehyde levels” value was “reduced both plasma and hepatic malondialdehyde levels”.
For `C[C@@H]1O[C@@H](OC[C@H]2O[C@@H](Oc3c(-c4ccc(O)c(O)c4)oc4cc(O)cc(O)c4c3=O)[C@H](O)[C@@H](O)[C@@H]2O)[C@H](O)[C@H](O)[C@H]1O` [rutin, quercetin-3-rutinoside], the bioavailability entry in data set [2] is “poor bioavailability; also recorded: much lower than the glucoside isoquercitrin”.
